We go through nine compounds from US12692254B2, “Benzimidazole inhibitors of PAD enzymes” (BRISTOL-MYERS SQUIBB COMPANY, priority 2018, dated 2026).

In this assay the target is human PAD4 (hPAD4) (Homo sapiens, UniProt Q9UM07). Briefly: RFMS human PAD4 functional assay (rapid-fire mass spectrum). The class given is biochemical. The settings on record: 5 nM hPAD4 enzyme, 250 μM BAEE, 50 μM Calcium; 30 min preincubation, 90 min reaction at 37° C. The method in brief: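 PAD4 (10 nM) preincubated 30 min with compound (top final 50 μM), then BAEE substrate added in pH 7.5 HEPES buffer with DTT, 50 μM calcium, TPEN; 90 min at 37° C. After TCA quench, citrulline derivatized with phenyl glyoxal (4 mM final, 30 min, 37° C) and quantified by RapidFire MS against internal standard.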
Chain of human PAD4 (hPAD4) (Q9UM07 whole entry): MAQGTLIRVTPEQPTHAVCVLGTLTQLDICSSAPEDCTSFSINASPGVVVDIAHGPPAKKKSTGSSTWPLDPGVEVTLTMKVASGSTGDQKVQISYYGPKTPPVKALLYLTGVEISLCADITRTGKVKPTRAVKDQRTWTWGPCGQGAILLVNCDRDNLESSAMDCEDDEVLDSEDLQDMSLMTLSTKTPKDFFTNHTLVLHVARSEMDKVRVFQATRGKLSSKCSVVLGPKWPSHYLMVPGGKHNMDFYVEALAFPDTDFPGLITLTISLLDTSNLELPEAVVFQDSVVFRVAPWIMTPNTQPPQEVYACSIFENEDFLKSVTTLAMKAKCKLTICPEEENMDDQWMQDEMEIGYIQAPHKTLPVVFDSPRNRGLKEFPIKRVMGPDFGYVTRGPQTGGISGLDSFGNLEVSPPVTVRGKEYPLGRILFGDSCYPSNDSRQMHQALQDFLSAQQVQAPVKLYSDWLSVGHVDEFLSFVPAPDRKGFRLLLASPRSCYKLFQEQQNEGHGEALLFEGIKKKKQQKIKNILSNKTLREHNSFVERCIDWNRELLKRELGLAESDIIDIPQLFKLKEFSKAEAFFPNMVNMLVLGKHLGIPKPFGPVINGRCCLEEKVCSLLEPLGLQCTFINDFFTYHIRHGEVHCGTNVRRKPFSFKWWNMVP

Take `COc1cc(C(=O)N2C[C@H](N)C[C@@H](F)C2)cc2nc(-c3cc4ccccc4n3CC3CC3)n(CC3CN(c4cncc(C#N)c4)C3)c12` [Example 34, 5-[3-({5-[(3R,5R)-3-amino-5-fluoropiperidine-1-carbonyl]-2-[1-(cyclopropylmethyl)-1H-indol-2-yl]-7-methoxy-1H-1,3-benzodiazol-1-yl}methyl)azetidin-1-yl]pyridine-3-carbonitrile]: the IC50 is 0.088 µM.

Consider `COc1cc(C(=O)N2C[C@H]3CC[C@@H]2[C@@H]3N)cc2nc(-c3cc4cccnc4n3CC3CC3)n(CC3CN(C(=O)CNC(C)=O)C3)c12` [Example 186, N-{2-[3-({5-[(1R,4R,7R)-7-amino-2-azabicyclo[2.2.1]heptane-2-carbonyl]-2-[1-(cyclopropylmethyl)-1H-pyrrolo[2,3-b]pyridin-2-yl]-7-methoxy-1H-1,3-benzodiazol-1-yl}methyl)azetidin-1-yl]-2-oxoethyl}acetamide], for which the IC50 worked out at 0.316 µM. To `COc1cc(C(=O)N2CC3CCC2[C@@H]3N)cc2nc(-c3cc4cccnc4n3CC3CC3)n(Cc3cnn(-c4ccccc4)c3)c12` (stereo partly drawn) [Example 367, (7R)-2-{2-[1-(cyclopropylmethyl)-1H-pyrrolo[2,3-b]pyridin-2-yl]-7-methoxy-1-[(1-phenyl-1H-pyrazol-4-yl)methyl]-1H-1,3-benzodiazole-5-carbonyl}-2-azabicyclo[2.2.1]heptan-7-amine] belongs 0.029 µM; to `COc1cc(C(=O)N2C[C@H](N)C[C@@H](F)C2)cc2nc(-c3cc4ccccc4n3CC3CC3)n(Cc3ccccn3)c12` [Example 293, (3R,5R)-1-{2-[1-(cyclopropylmethyl)-1H-indol-2-yl]-7-methoxy-1-[(pyridin-2-yl)methyl]-1H-1,3-benzodiazole-5-carbonyl}-5-fluoropiperidin-3-amine], 2.66 µM; to `COc1cc(C(=O)N2C[C@H](N)CC[C@@H]2C)cc2nc(-c3cc4ccccc4n3CC3CC3)n(Cc3cnn(C)c3)c12` [Example 251, ((2S,5R)-5-amino-2-methylpiperidin-1-yl)(2-(1-(cyclopropylmethyl)-1H-indol-2-yl)-7-methoxy-1-((1-methyl-1H-pyrazol-4-yl)methyl)-1H-benzo[d]imidazol-5-yl)methanone], 0.048 µM. To `COc1cc(C(=O)N2CC3CCC2[C@@H]3N)cc2nc(-c3cc4ccccc4n3CC3CC3)n(Cc3cnn(C)c3C)c12` (stereo partly drawn) [Example 482, (7R)-2-{2-[1-(cyclopropylmethyl)-1H-indol-2-yl]-1-[(1,5-dimethyl-1H-pyrazol-4-yl)methyl]-7-methoxy-1H-1,3-benzodiazole-5-carbonyl}-2-azabicyclo[2.2.1]heptan-7-amine] belongs 0.023 µM; to `Cc1cc(C(=O)N2CC3CCC2[C@@H]3N)cc2nc(-c3cc4ccccc4n3CC3CC3)n(CC3CN(C(=O)c4ccccc4)C3)c12` (stereo partly drawn) [Example 450, (7R)-2-{1-[(1-benzoylazetidin-3-yl)methyl]-2-[1-(cyclopropylmethyl)-1H-indol-2-yl]-7-methyl-1H-1,3-benzodiazole-5-carbonyl}-2-azabicyclo[2.2.1]heptan-7-amine], 0.046 µM; to `COc1cc(C(=O)N2C[C@H]3CC[C@@H]2[C@@H]3N)cc2nc(-c3cc4cccnc4n3CC3CC3)n(C3CN(c4cnc(C#N)nc4)C3)c12` [Example 75, 5-(3-{5-[(1R,4R,7R)-7-amino-2-azabicyclo[2.2.1]heptane-2-carbonyl]-2-[1-(cyclopropylmethyl)-1H-pyrrolo[2,3-b]pyridin-2-yl]-7-methoxy-1H-1,3-benzodiazol-1-yl}azetidin-1-yl)pyrimidine-2-carbonitrile], 0.216 µM. As for `COc1cc(C(=O)N2CC3CCC2[C@@H]3N)cc2nc(-c3cc4cccnc4n3CC3CC3)n(CC3CCN(c4ncccn4)C3)c12` (stereo in doubt) [Example 234, (1R,4R,7R)-2-{2-[1-(cyclopropylmethyl)-1H-pyrrolo[2,3-b]pyridin-2-yl]-7-methoxy-1-{[(3R)-1-(pyrimidin-2-yl)pyrrolidin-3-yl]methyl}-1H-1,3-benzodiazole-5-carbonyl}-2-azabicyclo[2.2.1]heptan-7-amine], the figure is 0.332 µM.
